The values below come from patent US11306092B2, “Amino indole compounds useful as TLR inhibitors” (BRISTOL-MYERS SQUIBB COMPANY, priority 2017, dated 2022).

What is called IC50 is the concentration that gives 50% inhibition. A high value points to lower potency.

Molecules are shown by their SMILES.

Experiment [1] deals with T1, human TLR7 (Homo sapiens, UniProt Q9NYK1).
T1 construct: host or cells: HEK-Blue cells
T1 sequence (Q9NYK1 27-1049): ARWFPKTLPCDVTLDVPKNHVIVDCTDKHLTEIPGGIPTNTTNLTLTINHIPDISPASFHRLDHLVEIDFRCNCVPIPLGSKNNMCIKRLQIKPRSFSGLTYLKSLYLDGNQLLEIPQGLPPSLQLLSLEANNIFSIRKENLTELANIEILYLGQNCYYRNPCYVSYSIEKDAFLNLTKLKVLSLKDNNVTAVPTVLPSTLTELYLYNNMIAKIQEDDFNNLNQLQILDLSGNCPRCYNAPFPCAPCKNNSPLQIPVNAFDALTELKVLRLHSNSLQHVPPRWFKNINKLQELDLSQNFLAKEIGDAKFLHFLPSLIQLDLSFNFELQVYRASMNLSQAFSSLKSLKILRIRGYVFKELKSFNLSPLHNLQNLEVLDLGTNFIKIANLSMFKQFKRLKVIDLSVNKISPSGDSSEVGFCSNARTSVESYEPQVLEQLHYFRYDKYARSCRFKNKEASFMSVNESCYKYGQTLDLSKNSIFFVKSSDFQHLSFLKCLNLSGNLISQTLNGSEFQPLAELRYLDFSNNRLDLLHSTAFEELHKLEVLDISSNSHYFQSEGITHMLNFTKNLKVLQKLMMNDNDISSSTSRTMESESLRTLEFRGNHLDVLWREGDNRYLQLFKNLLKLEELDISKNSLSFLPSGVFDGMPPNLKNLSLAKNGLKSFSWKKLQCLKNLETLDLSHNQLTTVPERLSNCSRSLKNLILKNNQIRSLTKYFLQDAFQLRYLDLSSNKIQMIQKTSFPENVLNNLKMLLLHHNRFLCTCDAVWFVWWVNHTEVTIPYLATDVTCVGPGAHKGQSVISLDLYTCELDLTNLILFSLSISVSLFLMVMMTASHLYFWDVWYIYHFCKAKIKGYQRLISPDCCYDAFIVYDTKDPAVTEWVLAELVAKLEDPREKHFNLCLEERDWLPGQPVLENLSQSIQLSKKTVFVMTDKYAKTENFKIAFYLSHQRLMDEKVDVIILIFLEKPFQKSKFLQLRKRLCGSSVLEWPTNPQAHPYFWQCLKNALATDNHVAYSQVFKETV
In words: TLR7 inhibition reporter assay (HEK-Blue SEAP reporter). In kind it is cell-based. The following applies: HEK-Blue cells overexpressing human TLR7; gardiquimod 7.5 μM; 22 hour incubation. As for the experimental part: (§1) TLR7/8/9 Inhibition Reporter Assays
(§2) HEK-Blue™-cells (Invivogen) overexpressing human TLR7, TLR8 or TLR9 receptors were used for screening inhibitors of these receptors using an inducible SEAP (secreted embryonic alkaline phosphatase) reporter gene under the control of the IFN-β minimal promoter fused to five NF-κB and AP-1-binding sites. Briefly, cells are seeded into Greiner 384 well plates (15000 cells per well for TLR7, 20,000 for TLR8 and 25,000 for TLR9) and then treated with test compounds in DMSO to yield a final dose response concentration range of 0.05 nM-50 μM. After a 30 minute compound pre-treatment at room temperature, the cells are then stimulated with a TLR7 ligand (gardiquimod at a final concentration of 7.5 μM), TLR8 ligand (R848 at a final concentration of 15.9 μM) or TLR9 ligand (ODN2006 at a final concentration of 5 nM) to activate NF-κB and AP-1 which induce the production of SEAP. After a 22 hour incubation at 37° C., 5% CO2, SEAP levels are determined with the addition of HEK-Blue™ Detection reagent (Invivogen), a cell culture medium that allows for detection of SEAP, according to manufacturer's specifications. The percent inhibition is determined as the % reduction in the HEK-Blue signal present in wells treated with agonist plus DMSO alone compared to wells treated with a known inhibitor.
A general note: Reporter assays use an easily measured gene product as a stand-in for the process of interest.

Experiment [2] concerns the target T2, human TLR9 (Homo sapiens, UniProt Q9NR96).
T2 construct: host or cells: HEK-Blue cells
T2 sequence (Q9NR96 26-1032): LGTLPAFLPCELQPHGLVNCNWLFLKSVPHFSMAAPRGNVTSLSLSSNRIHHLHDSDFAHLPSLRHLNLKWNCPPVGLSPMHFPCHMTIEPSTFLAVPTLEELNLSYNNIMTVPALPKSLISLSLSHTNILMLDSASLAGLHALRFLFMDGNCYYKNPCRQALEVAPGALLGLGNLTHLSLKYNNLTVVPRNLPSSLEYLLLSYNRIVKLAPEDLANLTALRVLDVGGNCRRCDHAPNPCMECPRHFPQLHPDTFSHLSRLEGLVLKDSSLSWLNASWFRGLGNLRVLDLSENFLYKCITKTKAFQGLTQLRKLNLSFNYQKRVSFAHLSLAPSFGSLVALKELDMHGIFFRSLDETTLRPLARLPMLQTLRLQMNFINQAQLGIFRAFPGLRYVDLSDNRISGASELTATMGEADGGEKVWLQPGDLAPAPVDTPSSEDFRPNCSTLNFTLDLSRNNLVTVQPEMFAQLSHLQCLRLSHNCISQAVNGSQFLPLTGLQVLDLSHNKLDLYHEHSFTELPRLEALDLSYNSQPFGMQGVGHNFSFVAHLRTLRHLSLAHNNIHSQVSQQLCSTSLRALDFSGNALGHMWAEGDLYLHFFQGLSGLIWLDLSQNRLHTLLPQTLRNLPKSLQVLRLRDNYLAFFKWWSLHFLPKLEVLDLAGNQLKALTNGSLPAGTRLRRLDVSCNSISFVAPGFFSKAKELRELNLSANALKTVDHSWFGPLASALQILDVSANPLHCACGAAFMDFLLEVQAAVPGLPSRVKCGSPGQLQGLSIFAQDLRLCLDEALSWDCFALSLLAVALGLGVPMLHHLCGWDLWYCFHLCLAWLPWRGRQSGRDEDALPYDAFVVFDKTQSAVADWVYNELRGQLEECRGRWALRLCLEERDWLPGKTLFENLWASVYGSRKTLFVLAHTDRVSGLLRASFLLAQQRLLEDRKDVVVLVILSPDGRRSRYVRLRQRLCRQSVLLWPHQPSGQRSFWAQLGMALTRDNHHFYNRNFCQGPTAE
Description: TLR9 inhibition reporter assay (HEK-Blue SEAP reporter). It counts as cell-based. The following applies: HEK-Blue cells overexpressing human TLR9; ODN2006 5 nM; 22 hour incubation. As for the experimental part:
as §1, §2

As to `COc1ccc(-c2[nH]c3ccc(NC4CCC(N5CCN(C(C)(C)C)CC5)CC4)cc3c2C(C)C)cc1OC` (stereo not shown) [Example 50, N-(4-(4-(tert-butyl)piperazin-1-yl)cyclohexyl)-2-(3,4-dimethoxyphenyl)-3-isopropyl-1H-indol-5-amine], the IC50 was 431 nM in experiment [1] and 561 nM in experiment [2].
On the same counts, the results for `COc1ccc(-c2[nH]c3ccc(NC4CCC(N5CCN(CC(C)C)CC5)CC4)cc3c2C(C)C)cc1OC` (stereo not shown) [Example 51, 2-(3,4-dimethoxyphenyl)-N-(4-(4-isobutylpiperazin-1-yl)cyclohexyl)-3-isopropyl-1H-indol-5-amine] are 767 nM and 1400 nM.
The corresponding values for `COc1ccc(-c2[nH]c3ccc(NC4CCC(N5CCN(CC(C)C)CC5)CC4)cc3c2C(C)C)cc1OC` (stereo not shown) [Example 52, 2-(3,4-dimethoxyphenyl)-N-(4-(4-isobutylpiperazin-1-yl)cyclohexyl)-3-isopropyl-1H-indol-5-amine] are 403 nM and 1580 nM.
With `COc1ccc(-c2[nH]c3ccc(NC4CCC(N5CCN(CC(C)C)CC5)CC4)cc3c2C(C)C)cc1OC` (stereo not shown) [Example 53, 2-(3,4-dimethoxyphenyl)-N-(4-(4-isobutylpiperazin-1-yl)cyclohexyl)-3-isopropyl-1H-indol-5-amine], the IC50 in experiment [1] was found to be 659 nM; in experiment [2], 1210 nM.
Take `COCCN1CCN(C2CCC(Nc3ccc4[nH]c(-c5ccc(OC)c(OC)c5)c(C(C)C)c4c3)CC2)CC1` (stereo not shown) [Example 54, 2-(3,4-dimethoxyphenyl)-3-isopropyl-N-(4-(4-(2-methoxyethyl)piperazin-1-yl)cyclohexyl)-1H-indol-5-amine]: the IC50 was determined as 269 nM in experiment [1] and 970 nM in experiment [2].
On the same counts, the results for `COc1ccc(-c2[nH]c3ccc(NC4CCC(NCCCN5CCOCC5)CC4)cc3c2C(C)C)cc1OC` (stereo not shown) [Example 55, N1-(2-(3,4-dimethoxyphenyl)-3-isopropyl-1H-indol-5-yl)-N4-(3-morpholinopropyl)cyclohexane-1,4-diamine] are 167 nM and 631 nM.
The corresponding values for `COc1ccc(-c2[nH]c3ccc(NC4CCC(NCCCN5CCOCC5)CC4)cc3c2C(C)C)cc1OC` (stereo not shown) [Example 56, N1-(2-(3,4-dimethoxyphenyl)-3-isopropyl-1H-indol-5-yl)-N4-(3-morpholinopropyl)cyclohexane-1,4-diamine] are 136 nM and 590 nM.
The corresponding values for `COc1ccc(-c2[nH]c3ccc(NC4CCC(N5CCN(C6CCCC6)CC5)CC4)cc3c2C(C)C)cc1OC` (stereo not shown) [Example 57, N-(4-(4-cyclopentylpiperazin-1-yl)cyclohexyl)-2-(3,4-dimethoxyphenyl)-3-isopropyl-1H-indol-5-amine] are 353 nM and 460 nM.
`COc1ccc(-c2[nH]c3ccc(NC4CCC(N5CCN(C6CCCC6)CC5)CC4)cc3c2C(C)C)cc1OC` (stereo not shown) [Example 58, N-(4-(4-cyclopentylpiperazin-1-yl)cyclohexyl)-2-(3,4-dimethoxyphenyl)-3-isopropyl-1H-indol-5-amine]: the IC50 was 351 nM in experiment [1] and 1080 nM in experiment [2].
The corresponding values for `COc1ccc(-c2[nH]c3ccc(NC4CCC(N5CCN(CCN6CCCC6)CC5)CC4)cc3c2C(C)C)cc1OC` (stereo not shown) [Example 63, 2-(3,4-dimethoxyphenyl)-3-isopropyl-N-(4-(4-(2-(pyrrolidin-1-yl)ethyl)piperazin-1-yl)cyclohexyl)-1H-indol-5-amine] are 257 nM and 405 nM.
The corresponding values for `COc1ccc(-c2[nH]c3ccc(NC4CCC(N5CCN(CCN6CCCC6)CC5)CC4)cc3c2C(C)C)cc1OC` (stereo not shown) [Example 64, 2-(3,4-dimethoxyphenyl)-3-isopropyl-N-(4-(4-(2-(pyrrolidin-1-yl)ethyl)piperazin-1-yl)cyclohexyl)-1H-indol-5-amine] are 357 nM and 555 nM.
